Laboratory results from PubChem BioAssay (NCI).
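Grown in 96-well plates, cells were treated for 48 hours with each compound at five concentrations. Insufficient inhibition: endpoint recorded as highest concentration tested. At the GI50, growth is halved. TGI denotes the concentration required for complete inhibition of growth.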

Legend:
Experiment in all cases: NCI-60 cell line screen, 48 h
NCI-H23 lung = tested on: NCI-H23 lung
NCI-H460 lung = tested on: NCI-H460 lung
NCI-H522 lung = tested on: NCI-H522 lung
NCI/ADR-RES ovarian = tested on: NCI/ADR-RES ovarian
OVCAR-3 ovarian = tested on: OVCAR-3 ovarian
OVCAR-4 ovarian = tested on: OVCAR-4 ovarian
OVCAR-5 ovarian = tested on: OVCAR-5 ovarian
OVCAR-8 ovarian = tested on: OVCAR-8 ovarian
PC-3 prostate = tested on: PC-3 prostate
RPMI-8226 leukemia = tested on: RPMI-8226 leukemia
RXF 393 renal = tested on: RXF 393 renal
SF-268 CNS = tested on: SF-268 CNS
SF-295 CNS = tested on: SF-295 CNS
SF-539 CNS = tested on: SF-539 CNS
SK-MEL-2 melanoma = tested on: SK-MEL-2 melanoma
SK-MEL-28 melanoma = tested on: SK-MEL-28 melanoma
SK-MEL-5 melanoma = tested on: SK-MEL-5 melanoma
SK-OV-3 ovarian = tested on: SK-OV-3 ovarian
SN12C renal = tested on: SN12C renal
SNB-19 CNS = tested on: SNB-19 CNS
SNB-75 CNS = tested on: SNB-75 CNS
SR leukemia = tested on: SR leukemia
SW-620 colon = tested on: SW-620 colon
T-47D breast = tested on: T-47D breast
TK-10 renal = tested on: TK-10 renal
U251 CNS = tested on: U251 CNS
UACC-257 melanoma = tested on: UACC-257 melanoma
UACC-62 melanoma = tested on: UACC-62 melanoma
UO-31 renal = tested on: UO-31 renal

O=C(C1CC1)N1CC[C@@H](Cc2n[nH]c(=O)n2-c2ccc(-c3ccc4occc4c3)cc2)C1
TGI (NCI-H23 lung): > 100 µM
GI50 (NCI-H460 lung): 3.2 µM
TGI (NCI-H460 lung): > 100 µM
GI50 (NCI-H522 lung): 20.9 µM
TGI (NCI-H522 lung): > 92 µM
GI50 (NCI/ADR-RES ovarian): 30.8 µM
TGI (NCI/ADR-RES ovarian): > 100 µM
GI50 (OVCAR-3 ovarian): 15.8 µM
TGI (OVCAR-3 ovarian): > 73.7 µM
GI50 (OVCAR-4 ovarian): 9.02 µM
TGI (OVCAR-4 ovarian): > 94.5 µM
GI50 (OVCAR-5 ovarian): 42.5 µM
TGI (OVCAR-5 ovarian): > 100 µM
GI50 (OVCAR-8 ovarian): 25.3 µM
TGI (OVCAR-8 ovarian): > 100 µM
GI50 (PC-3 prostate): 23.2 µM
TGI (PC-3 prostate): > 100 µM
GI50 (RPMI-8226 leukemia): 2.82 µM
TGI (RPMI-8226 leukemia): > 75.4 µM
GI50 (RXF 393 renal): 24.2 µM
TGI (RXF 393 renal): > 100 µM
GI50 (SF-268 CNS): 12.4 µM
TGI (SF-268 CNS): > 100 µM
GI50 (SF-295 CNS): 11.5 µM
TGI (SF-295 CNS): > 100 µM
GI50 (SF-539 CNS): 8.16 µM
TGI (SF-539 CNS): > 100 µM
GI50 (SK-MEL-2 melanoma): 21.5 µM
TGI (SK-MEL-2 melanoma): 70.3 µM
GI50 (SK-MEL-28 melanoma): 32 µM
TGI (SK-MEL-28 melanoma): > 100 µM
GI50 (SK-MEL-5 melanoma): 12 µM
TGI (SK-MEL-5 melanoma): 33.6 µM
GI50 (SK-OV-3 ovarian): 25.4 µM
TGI (SK-OV-3 ovarian): > 100 µM
GI50 (SN12C renal): 23.2 µM
TGI (SN12C renal): > 100 µM
GI50 (SNB-19 CNS): 17 µM
TGI (SNB-19 CNS): > 100 µM
GI50 (SNB-75 CNS): 13.7 µM
TGI (SNB-75 CNS): > 94.1 µM
GI50 (SR leukemia): 23.9 µM
TGI (SR leukemia): > 100 µM
GI50 (SW-620 colon): 27.6 µM
TGI (SW-620 colon): > 100 µM
GI50 (T-47D breast): 18 µM
TGI (T-47D breast): > 96.5 µM
GI50 (TK-10 renal): 28.3 µM
TGI (TK-10 renal): > 100 µM
GI50 (U251 CNS): 25.4 µM
TGI (U251 CNS): > 100 µM
GI50 (UACC-257 melanoma): 29 µM
TGI (UACC-257 melanoma): > 96.6 µM
GI50 (UACC-62 melanoma): 21.1 µM
TGI (UACC-62 melanoma): > 100 µM
GI50 (UO-31 renal): 1.91 µM
TGI (UO-31 renal): 65.4 µM
